Experimental data taken from ChEMBL document CHEMBL1136399, “Anti-AIDS agents 54. A potent anti-HIV chalcone and flavonoids from genus Desmos” (Bioorg Med Chem Lett, 2003).
Converted amounts (≈) assume the structure as drawn.

Tests used:
H9 [1] = test: Effective concentration against HIV-1 replication in H9 lymphocytic cells; No suppression; format: functional, cell-based, Homo sapiens
H9 [2] = test: Concentration that inhibits uninfected H9 cell growth by 50%.; format: functional, cell-based; details: Homo sapiens
H9 [3] = test: Concentration that inhibits uninfected H9 cell growth by 50%.; Not dissolved; format: functional, cell-based, Homo sapiens
H9 [4] = test: Concentration that inhibits uninfected H9 cell growth by 50%.; Did not dissolve; format: functional, cell-based, Homo sapiens
H9 [5] = test: Effective concentration against HIV-1 replication in H9 lymphocytic cells; format: functional, cell-based; details: Homo sapiens
[6] = Therapeutic index determined by ratio of IC50 to EC50; details: read-out: Therapeutic index

Compound | EC50 (H9 [1]) | IC50 (H9 [2]) [µg/mL] | also measured
Cc1c(O)c(C=O)c2oc(-c3ccccc3)cc(=O)c2c1O | – | – | IC50 (H9 [3]): Insoluble
Cc1c(O)c(C=O)c(O)c2c(=O)cc(-c3ccccc3)oc12 | – | – | IC50 (H9 [4]): Insoluble
COC1=C(C)C(O)=C(C(=O)/C=C/c2ccccc2)C(=O)C1(C)C [DESMOSDUMOTIN C] | Not Active | 2.29 (≈ 7.33 µM) | –
COc1c(C)c(O)c(C=O)c2c1C(=O)C[C@@H](c1ccccc1)O2 | – | 108 (≈ 346 µM) | EC50 (H9 [5]): 11 µg/mL (≈ 35.2 µM); selectivity ratio [6]: 9.85
CC1=C(O)C(C)(C)C2=C(C(=O)C[C@@H](c3ccccc3)O2)C1=O | Not Active | 1.89 (≈ 6.34 µM) | –
COc1c(C)c(O)c2c(c1C)O[C@H](c1ccccc1)CC2=O | Not Active | 1.77 (≈ 5.93 µM) | –
Cc1c(O)c(C=O)c(O)c2c1O[C@H](c1ccccc1)CC2=O | – | 104 (≈ 349 µM) | EC50 (H9 [5]): 2.3 µg/mL (≈ 7.71 µM); selectivity ratio [6]: 45.2
COc1cc2oc(-c3ccccc3)cc(=O)c2c(O)c1O | Not Active | 11.5 (≈ 40.5 µM) | –
COc1cc2oc(-c3ccccc3)cc(=O)c2c(O)c1OC [MOSLOFLAVONE] | Not Active | 20.2 (≈ 67.7 µM) | –
Cc1cn([C@H]2C[C@H](N=[N+]=[N-])[C@@H](CO)O2)c(=O)[nH]c1=O [ZIDOVUDINE] | – | – | EC50 (H9 [5]): 0.0221 µg/mL (≈ 0.0827 µM)
COc1c(C)c(O)c2c(=O)cc(-c3ccccc3)oc2c1C | Not Active | 19.8 (≈ 66.8 µM) | –
Cc1c(O)c(C)c2c(c1O)C(=O)C[C@@H](c1ccccc1)O2 [DEMETHOXYMATTEUCINOL] | – | 20.8 (≈ 73.2 µM) | EC50 (H9 [5]): 4.97 µg/mL (≈ 17.5 µM); selectivity ratio [6]: 4.18
COc1c(C)c(O)c(/C(O)=C/C(=O)c2ccccc2)c(O)c1C=O | – | 10.7 (≈ 32.6 µM) | EC50 (H9 [5]): 0.022 µg/mL (≈ 0.067 µM); selectivity ratio [6]: 489

Continued, in another order:

EC50 (H9 [1]) | Compound | IC50 (H9 [2]) [µg/mL] | also measured
Not Active | Cc1c(O)c(C=O)c(O)c(/C(O)=C/C(=O)c2ccccc2)c1O | 18.8 (≈ 59.8 µM) | –
Not Active | COc1c(C)c(O)c2c(c1C=O)O[C@@H](C)[C@H](C(=O)c1ccccc1)C2=O | 18.9 (≈ 53.3 µM) | –
Not Active | COc1c(C)c(O)c(C=O)c2c1C(O)C[C@@H](c1ccccc1)O2 (stereo not given in full) | 24.2 (≈ 77 µM) | –
Not Active | Cc1c(O)c(C=O)c2c(c1O)C(=O)C[C@@H](c1ccccc1)O2 | 2.15 (≈ 7.21 µM) | –
